pIC50: −log10 of the molar value. Where two headings read alike, the source gives them in different places. Values belong to the molecule of their own block, whether it stands above or below them.
Key:
[1] = tested on: respiratory syncytial virus; settings: cited from earlier work
[2] = tested on: RSV Long strain; experiment: Virus cytopathic effect (CPE) assay, anti-RSV activity in HEp-2 cells; type: cell-based; settings: human respiratory syncytial virus, 96 h, RSV Long strain 0.5 MOI, CellTiter-Glo after 4 days
Method: HEp-2 cells (ATCC CCL-23, human laryngeal carcinoma epithelial cells) were purchased from American Type Culture Collection and the culture conditions were as follows: 1% double antibody was added to Dulbecco modified Eagle medium (DMEM) medium containing 10% fetal bovine serum (FBS), and maintained in a 5% CO2 incubator and cultured at 37° C. To evaluate the anti-RSV activity of compounds, cells were seeded in a 96-well plate at a density of 5×10^3 cells/well in Hyclone™ (DMEM) containing 10% fetal bovine serum (FBS). The following day, cells were infected with a 0.5 MOI of RSV Long strain (ATCC) in the presence of 3-fold serial dilutions of compound to a total volume of 100 μL per well. The cell viability was evaluated by the cell counting kit CellTiter-Glo Reagent after 4 days. The fluorescence signal was read on a multi-mode microplate reader and the 50% effective concentration EC50 was determined by the fluorescence value. The RSV inhibition activities of the compounds involved in Examples 1 to 15 disclosed herein were evaluated according to the above method, and the results are shown in Table 3 below.

[3] = Pharmacokinetics in ICR mice, plasma drug concentrations; type: in vivo; settings: for AUC(0-inf) / Cmax / Tmax / clearance / half-life / AUC(0-t) / Vd: ICR, mouse plasma; for AUC(0-t): read-out: AUC0-12; for Vd: read-out: Vss; for concentration at 0.083 h / concentration at 0.25 h / concentration at 0.5 h / concentration at 1 h / concentration at 2 h / concentration at 4 h / concentration at 8 h / concentration at 24 h / concentration at 12 h: mouse, plasma; for concentration at 0.083 h / concentration at 0.25 h / concentration at 0.5 h / concentration at 1 h / concentration at 2 h / concentration at 4 h / concentration at 8 h / concentration at 24 h / F / concentration at 12 h: ICR mice; for F: p.o. 10 mg/kg vs i.v. 2 mg/kg
Method: The pharmacokinetics were further tested of Example 4 and Example 7 disclosed herein and Example 61-1 (Comparative Example 1) in patent WO2013020993 in ICR mice. A single intravenous injection (dose of 2 mg/kg) and a single oral administration (dose of 10 mg/kg) were taken respectively. Blood collection point: before administration, 5 min, 15 min, 30 min, 1 h, 2 h, 4 h, 8 h, 12 h, 24 h after administration. The same method was applied to the pharmacokinetics of the above Comparative Example 1 in ICR mice, with a single intravenous injection (dose of 2 mg/kg) and a single oral administration (dose of 10 mg/kg) respectively.

[4] = tested on: RSV; settings: oral; cited from earlier work

Structure (SMILES): CC(C)C(=O)OC[C@@]1(CCl)O[C@@H](n2ccc(N)nc2=O)[C@H](F)[C@@H]1OC(=O)C(C)C [ALS-8176]
volunteers with reduced respiratory syncytial virus load [1]: more than 85%

pIC50 [2]: 8.36
Structure (SMILES): Cc1ccc2nc(N3CCS(=O)(=O)c4ccccc4C3)nc(N3CC(N)C3)c2c1 [Example 1, 4-(4-(3-Aminoazetidin-1-yl)-6-methylquinazolin-2-yl)-2,3,4,5-tetrahydrobenzo[f][1,4]thiazepine 1,1-dioxide]

pIC50 [2]: 8.20
Structure (SMILES): Cc1ccc2nc(N3CCS(=O)(=O)c4ccccc4C3)nc(NCC3CNC3)c2c1 [Example 2, 4-(4-((Azetidin-3-ylmethyl)amino)-6-methylquinazolin-2-yl)-2,3,4,5-tetrahydrobenzo[f][1,4]thiazepine 1,1-dioxide]

pIC50 [2]: 8.30
Structure (SMILES): Cc1ccc2nc(N3CCS(=O)(=O)c4ccccc4C3)nc(N3CC(CN)(CO)C3)c2c1 [Example 3, 4-(4-(3-(Aminomethyl)-3-(hydroxymethyl)azetidin-1-yl)-6-methylquinazolin-2-yl)-2,3,4,5-tetrahydrobenzo[f][1,4]thiazepine 1,1-dioxide]

pIC50 [2]: 8.15
AUC(0-inf) ([3]; iv, i.v. 2 mg/kg): 1010 ng·h/mL
Cmax ([3]; iv, i.v. 2 mg/kg): 82.4 ng/mL
Tmax ([3]; iv, i.v. 2 mg/kg): 4 h
clearance ([3]; iv, i.v. 2 mg/kg): 32.8 mL/min/kg
half-life ([3]; iv, i.v. 2 mg/kg): 3.4 h
AUC(0-t) ([3]; iv, i.v. 2 mg/kg): 1010 ng·h/mL
Vd ([3]; iv, i.v. 2 mg/kg): 13.1 L/kg
AUC(0-inf) ([3]; po, p.o. 10 mg/kg): 3780 ng·h/mL
Cmax ([3]; po, p.o. 10 mg/kg): 505 ng/mL
Tmax ([3]; po, p.o. 10 mg/kg): 2 h
half-life ([3]; po, p.o. 10 mg/kg): 3.3 h
AUC(0-t) ([3]; po, p.o. 10 mg/kg): 3760 ng·h/mL
concentration at 0.083 h ([3]; iv, i.v. 2 mg/kg): 38 ng/mL
concentration at 0.25 h ([3]; iv, i.v. 2 mg/kg): 38.4 ng/mL
concentration at 0.5 h ([3]; iv, i.v. 2 mg/kg): 30.7 ng/mL
concentration at 1 h ([3]; iv, i.v. 2 mg/kg): 34.5 ng/mL
concentration at 2 h ([3]; iv, i.v. 2 mg/kg): 43.9 ng/mL
concentration at 4 h ([3]; iv, i.v. 2 mg/kg): 82.4 ng/mL
concentration at 8 h ([3]; iv, i.v. 2 mg/kg): 62.8 ng/mL
concentration at 24 h ([3]; iv, i.v. 2 mg/kg): 1.7 ng/mL
concentration at 0.083 h ([3]; po, p.o. 10 mg/kg): 49.7 ng/mL
concentration at 0.25 h ([3]; po, p.o. 10 mg/kg): 274 ng/mL
concentration at 0.5 h ([3]; po, p.o. 10 mg/kg): 407 ng/mL
concentration at 1 h ([3]; po, p.o. 10 mg/kg): 432 ng/mL
concentration at 2 h ([3]; po, p.o. 10 mg/kg): 505 ng/mL
concentration at 4 h ([3]; po, p.o. 10 mg/kg): 380 ng/mL
concentration at 8 h ([3]; po, p.o. 10 mg/kg): 128 ng/mL
concentration at 24 h ([3]; po, p.o. 10 mg/kg): 5.4 ng/mL
F [3]: 74.6%
Structure (SMILES): NC1CN(c2nc(N3CCS(=O)(=O)c4ccccc4C3)nc3ccc(C(F)F)cc23)C1 [Example 4, 4-(4-(3-Aminoazetidin-1-yl)-6-(difluoromethyl)quinazolin-2-yl)-2,3,4,5-tetrahydrobenzo[f][1,4]thiazepine 1,1-dioxide]

pIC50 [2]: 8.10
Structure (SMILES): NCC1(CO)CN(c2nc(N3CCS(=O)(=O)c4ccccc4C3)nc3ccc(C(F)F)cc23)C1 [Example 5, 4-(4-(3-(Aminomethyl)-3-(hydroxymethyl)azetidin-1-yl)-6-(difluoromethyl)quinazolin-2-yl)-2,3,4,5-tetrahydrobenzo[f][1,4]thiazepine 1,1-dioxide]

pIC50 [2]: 8.31
Structure (SMILES): O=S1(=O)CCN(c2nc(NC3CNC3)c3cc(C(F)F)ccc3n2)Cc2ccccc21 [Example 6, 4-(4-(Azetidin-3-ylamino)-6-(difluoromethyl)quinazolin-2-yl)-2,3,4,5-tetrahydrobenzo[f][1,4]thiazepine 1,1-dioxide]

pIC50 [2]: 8.39
AUC(0-inf) ([3]; iv, i.v. 2 mg/kg): 579 ng·h/mL
Cmax ([3]; iv, i.v. 2 mg/kg): 815 ng/mL
Tmax ([3]; iv, i.v. 2 mg/kg): 0.08 h
clearance ([3]; iv, i.v. 2 mg/kg): 57.6 mL/min/kg
half-life ([3]; iv, i.v. 2 mg/kg): 1.6 h
AUC(0-t) ([3]; iv, i.v. 2 mg/kg): 573 ng·h/mL
Vd ([3]; iv, i.v. 2 mg/kg): 3.33 L/kg
AUC(0-inf) ([3]; po, p.o. 10 mg/kg): 481 ng·h/mL
Cmax ([3]; po, p.o. 10 mg/kg): 287 ng/mL
Tmax ([3]; po, p.o. 10 mg/kg): 0.5 h
half-life ([3]; po, p.o. 10 mg/kg): 1.3 h
AUC(0-t) ([3]; po, p.o. 10 mg/kg): 476 ng·h/mL
concentration at 0.083 h ([3]; iv, i.v. 2 mg/kg): 815 ng/mL
concentration at 0.25 h ([3]; iv, i.v. 2 mg/kg): 540 ng/mL
concentration at 0.5 h ([3]; iv, i.v. 2 mg/kg): 335 ng/mL
concentration at 1 h ([3]; iv, i.v. 2 mg/kg): 128 ng/mL
concentration at 2 h ([3]; iv, i.v. 2 mg/kg): 35 ng/mL
concentration at 4 h ([3]; iv, i.v. 2 mg/kg): 12.3 ng/mL
concentration at 8 h ([3]; iv, i.v. 2 mg/kg): 2.7 ng/mL
concentration at 12 h ([3]; iv, i.v. 2 mg/kg): 1.3 ng/mL
concentration at 24 h ([3]; iv, i.v. 2 mg/kg): 1.5 ng/mL
concentration at 0.083 h ([3]; po, p.o. 10 mg/kg): 233 ng/mL
concentration at 0.25 h ([3]; po, p.o. 10 mg/kg): 262 ng/mL
concentration at 0.5 h ([3]; po, p.o. 10 mg/kg): 287 ng/mL
concentration at 1 h ([3]; po, p.o. 10 mg/kg): 180 ng/mL
concentration at 2 h ([3]; po, p.o. 10 mg/kg): 50.1 ng/mL
concentration at 4 h ([3]; po, p.o. 10 mg/kg): 16.7 ng/mL
concentration at 8 h ([3]; po, p.o. 10 mg/kg): 4.6 ng/mL
concentration at 12 h ([3]; po, p.o. 10 mg/kg): 2.9 ng/mL
concentration at 24 h ([3]; po, p.o. 10 mg/kg): 1.4 ng/mL
F [3]: 16.62%
Structure (SMILES): NC1(CNc2nc(N3CCS(=O)(=O)c4ccccc4C3)nc3ccc(C(F)F)cc23)COC1 [Example 7, 4-(4-(((3-Aminooxetan-3-yl)methyl)amino)-6-(difluoromethyl)quinazolin-2-yl)-2,3,4,5-tetrahydrobenzo[f][1,4]thiazepine 1,1-dioxide]

pIC50 [2]: 8.54
Structure (SMILES): Cc1ccc2nc(N3CCS(=O)(=O)c4ccccc4C3)nc(NCC3(O)CNC3)c2c1 [Example 8, 4-(4-(((3-Hydroxyazetidin-3-yl)methyl)amino)-6-methylquinazolin-2-yl)-2,3,4,5-tetrahydrobenzo[f][1,4]thiazepine 1,1-dioxide]

pIC50 [2]: 9.05
Structure (SMILES): Cc1ccc2nc(N3CCS(=O)(=O)c4ccccc4C3)nc(N3CCC(O)(CN)C3)c2c1 (centres unmarked) [Example 9, 4-(4-(3-(Aminomethyl)-3-hydroxypyrrolidin-1-yl)-6-methylquinazolin-2-yl)-2,3,4,5-tetrahydrobenzo[f][1,4]thiazepine 1,1-dioxide]

pIC50 [2]: 8.48
Structure (SMILES): Cc1ccc2nc(N3CCS(=O)(=O)c4ccccc4C3)nc(N3CC(O)(CN)C3)c2c1 [Example 10, 4-(4-(3-(Aminomethyl)-3-hydroxyazetidin-1-yl)-6-methylquinazolin-2-yl)-2,3,4,5-tetrahydrobenzo[f][1,4]thiazepine 1,1-dioxide]

pIC50 [2]: 8.92
Structure (SMILES): Cc1ccc2nc(N3CCS(=O)(=O)c4ccccc4C3)nc(N3CC(CN)C3)c2c1 [Example 11, 4-(4-(3-(Aminomethyl)azetidin-1-yl)-6-methylquinazolin-2-yl)-2,3,4,5-tetrahydrobenzo[f][1,4]thiazepine 1,1-dioxide]

pIC50 [2]: 8.77
Structure (SMILES): Cc1ccc2nc(N3CCS(=O)(=O)c4ccccc4C3)nc(NC3CC(N)C3)c2c1 (centres unmarked) [Example 12, 4-(4-((3-Aminocyclobutyl)amino)-6-methylquinazolin-2-yl)-2,3,4,5-tetrahydrobenzo[f][1,4]thiazepine 1,1-dioxide]

pIC50 [2]: 8.02
Structure (SMILES): Cc1ccc2nc(N3CCS(=O)(=O)c4ccccc4C3)nc(N3CC(N)(CN)C3)c2c1 [Example 13, 4-(4-(3-Amino-3-(aminomethyl)azetidin-1-yl)-6-methylquinazolin-2-yl)-2,3,4,5-tetrahydrobenzo[f][1,4]thiazepine 1,1-dioxide]

pIC50 [2]: 8.89
Structure (SMILES): Cc1ccc2nc(N3CCS(=O)(=O)c4ccccc4C3)nc(N[C@H]3CNC[C@@H]3O)c2c1 [Example 14, 4-(4-(((3S,4S)-4-hydroxypyrrolidin-3-yl)amino)-6-methylquinazolin-2-yl)-2,3,4,5-tetrahydrobenzo[f][1,4]thiazepine 1,1-dioxide]

pIC50 [2]: 8.43
Structure (SMILES): Cc1ccc2nc(N3CCS(=O)(=O)c4ccccc4C3)nc(NC3CC4(CNC4)C3)c2c1 [Example 15, 4-(4-((2-azaspiro[3.3]heptan-6-yl)amino)-6-methylquinazolin-2-yl)-2,3,4,5-tetrahydrobenzo[f][1,4]thiazepine 1,1-dioxide]

Structure (SMILES): Cc1cn2nc([C@@H]3CCCCN3C(=O)c3cc(Cl)ccc3NS(C)(=O)=O)cc2nc1N1CC[C@H](N)C1 [GS-5806]
viral load, mucus quantity and symptom scores [4]: decrease viral load, mucus quantity and symptom scores

Reference: US12582661B2, “Synthesis and application of class of respiratory syncytial virus inhibitors” (SHANGHAI ARK BIOPHARMACEUTICAL CO., LTD., priority 2020, dated 2026)
